Experimental data reported in patent US6777425B2, “Isoquinoline compounds having antiinfective activity” (Genesoft Pharmaceuticals, Inc., priority 2001, dated 2004).

Assays:
B. cereus ATCC 11778 = assay: NCCLS broth microdilution MIC, B. cereus; assay type: cell-based, Bacillus cereus; conditions: organism A = B. cereus ATCC 11778
Source text: (§1) Compounds according to this invention were screened for their in vitro activities against selected species of bacteria and fungi. […]

C. albicans ATCC 38247 = assay: Antifungal MIC, C. albicans; assay type: cell-based, Candida albicans; conditions: organism B = C. albicans ATCC 38247
Source text: as §1

E. faecalis ATCC 29212 = assay: NCCLS broth microdilution MIC, E. faecalis; assay type: cell-based; conditions: organism C = E. faecalis ATCC 29212
Source text: as §1

E. faecium ATCC 51559 = assay: NCCLS broth microdilution MIC, E. faecium (VRE); assay type: cell-based, Enterococcus faecium; conditions: organism D = E. faecium ATCC 51559 (VRE)
Source text: as §1

S. aureus ATCC 13709 = assay: NCCLS broth microdilution MIC, S. aureus (MSSA); assay type: cell-based, Staphylococcus aureus; conditions: organism E = S. aureus ATCC 13709 (MSSA)
Source text: as §1

S. aureus ATCC 27660 = assay: NCCLS broth microdilution MIC, S. aureus (MRSA); assay type: cell-based, Staphylococcus aureus; conditions: organism F = S. aureus ATCC 27660 (MRSA)
Source text: as §1

[1] = test system: S. epidermidis ATCC 12228; assay: NCCLS broth microdilution MIC, S. epidermidis; assay type: cell-based, Staphylococcus epidermidis; conditions: organism G = S. epidermidis ATCC 12228
Source text: as §1

S. pneumoniae ATCC 49619 = assay: NCCLS broth microdilution MIC, S. pneumoniae ATCC 49619; assay type: cell-based, Streptococcus pneumoniae; conditions: organism H = S. pneumoniae ATCC 49619
Source text: as §1

S. pneumoniae ATCC 51422 = assay: NCCLS broth microdilution MIC, S. pneumoniae (PRSP); assay type: cell-based, Streptococcus pneumoniae; conditions: organism I = S. pneumoniae ATCC 51422 (PRSP)
Source text: as §1

[2] = Staphylococcus aureus, read-out: Minimum Inhibitory Concentration (MIC)

Row | Structure (SMILES) | Minimum Inhibitory Concentration (MIC) (B. cereus ATCC 11778) | Minimum Inhibitory Concentration (MIC) (C. albicans ATCC 38247) | Minimum Inhibitory Concentration (MIC) (E. faecalis ATCC 29212) | Minimum Inhibitory Concentration (MIC) (E. faecium ATCC 51559) | Minimum Inhibitory Concentration (MIC) (S. aureus ATCC 13709) | Minimum Inhibitory Concentration (MIC) (S. aureus ATCC 27660) | Minimum Inhibitory Concentration (MIC) [1] | Minimum Inhibitory Concentration (MIC) (S. pneumoniae ATCC 49619) | Minimum Inhibitory Concentration (MIC) (S. pneumoniae ATCC 51422) | MIC (B. cereus ATCC 11778; Bacillus cereus, ATCC11778, read-out: Minimum Inhibitory Concentration (MIC)) [mg/L] | MIC (C. albicans ATCC 38247; Candida albicans, ATCC38247, read-out: Minimum Inhibitory Concentration (MIC)) [mg/L] | MIC (E. faecalis ATCC 29212; Enterococcus faecalis, ATCC29212, read-out: Minimum Inhibitory Concentration (MIC)) [mg/L] | MIC (E. faecium ATCC 51559; Enterococcus faecium, read-out: Minimum Inhibitory Concentration (MIC)) [mg/L] | MIC (S. aureus ATCC 13709; [2]) [mg/L] | MIC (S. aureus ATCC 27660; [2]) [mg/L] | MIC ([1]; Staphylococcus epidermidis, ATCC12228, read-out: Minimum Inhibitory Concentration (MIC)) [mg/L] | MIC (S. pneumoniae ATCC 49619; Streptococcus pneumoniae, ATCC49619, read-out: Minimum Inhibitory Concentration (MIC)) [mg/L] | MIC (S. pneumoniae ATCC 51422; Streptococcus pneumoniae, read-out: Minimum Inhibitory Concentration (MIC)) [mg/L]
1 | Cn1cc(NC(=O)c2cc3ccccc3cn2)cc1C(=O)Nc1cc(C(=O)Nc2c[nH]c(C(=O)NCCN3CCSCC3)c2)n(C)c1 [Ib-54] | +++ (+++ = MIC ≦ 4) | >32 mg/L | +++ (+++ = MIC ≦ 4) | +++ (+++ = MIC ≦ 4) | +++ (+++ = MIC ≦ 4) | +++ (+++ = MIC ≦ 4) | ++ (++ = 4 < MIC < 12) | +++ (+++ = MIC ≦ 4) | +++ (+++ = MIC ≦ 4) | – | – | – | – | – | – | – | – | –
2 | Cn1cc(NC(=O)c2ccc(NC(=O)c3cc(NC(=O)c4cc5ccccc5cn4)cn3C)cc2)cc1C(=O)NCCN1CCC(F)CC1 [Ic-3] | +++ (+++ = MIC ≦ 4) | >32 mg/L | +++ (+++ = MIC ≦ 4) | +++ (+++ = MIC ≦ 4) | +++ (+++ = MIC ≦ 4) | +++ (+++ = MIC ≦ 4) | +++ (+++ = MIC ≦ 4) | +++ (+++ = MIC ≦ 4) | +++ (+++ = MIC ≦ 4) | – | – | – | – | – | – | – | – | –
3 | COCCOCCOCCn1cc(NC(=O)c2cc(NC(=O)c3cc4ccccc4cn3)cn2C)cc1C(=O)Nc1cc(C(=O)NCCN2CCOCC2)n(C)c1 [Ib-83] | +++ (+++ = MIC ≦ 4) | >32 mg/L | +++ (+++ = MIC ≦ 4) | +++ (+++ = MIC ≦ 4) | +++ (+++ = MIC ≦ 4) | +++ (+++ = MIC ≦ 4) | +++ (+++ = MIC ≦ 4) | +++ (+++ = MIC ≦ 4) | +++ (+++ = MIC ≦ 4) | – | – | – | – | – | – | – | – | –
4 | Cn1cc(NC(=O)c2ccc(NC(=O)c3cc(NC(=O)c4cc5ccccc5cn4)cn3C)cc2)cc1C(=O)NCCN1CCC(F)(F)CC1 [Ic-4] | +++ (+++ = MIC ≦ 4) | >32 mg/L | +++ (+++ = MIC ≦ 4) | +++ (+++ = MIC ≦ 4) | +++ (+++ = MIC ≦ 4) | +++ (+++ = MIC ≦ 4) | +++ (+++ = MIC ≦ 4) | +++ (+++ = MIC ≦ 4) | +++ (+++ = MIC ≦ 4) | – | – | – | – | – | – | – | – | –
5 | Cn1cc(NC(=O)c2cc(NC(=O)c3cc(NC(=O)c4cc5ccccc5cn4)c[nH]3)cn2C)cc1C(=O)NCCN1CCOCC1 [Ib-50] | +++ (+++ = MIC ≦ 4) | >32 mg/L | +++ (+++ = MIC ≦ 4) | +++ (+++ = MIC ≦ 4) | +++ (+++ = MIC ≦ 4) | +++ (+++ = MIC ≦ 4) | +++ (+++ = MIC ≦ 4) | +++ (+++ = MIC ≦ 4) | +++ (+++ = MIC ≦ 4) | – | – | – | – | – | – | – | – | –
6 | Cn1cc(NC(=O)c2ccc(NC(=O)c3cc(NC(=O)c4cc5ccccc5cn4)cn3C)cc2)cc1C(=O)NCCN1CCOCC1 [Ic-1] | – | – | – | – | – | – | – | – | – | < 4 | > 32 | < 4 | < 4 | < 4 | < 4 | < 4 | < 4 | < 4
7 | Cn1cc(NC(=O)c2cc(NC(=O)c3cc(NC(=O)c4cc5ccccc5cn4)cn3C)c[nH]2)cc1C(=O)NCCN1CCC(F)CC1 [Ib-85] | +++ (+++ = MIC ≦ 4) | + (+ = 12 ≦ MIC ≦ 32) | +++ (+++ = MIC ≦ 4) | +++ (+++ = MIC ≦ 4) | +++ (+++ = MIC ≦ 4) | +++ (+++ = MIC ≦ 4) | +++ (+++ = MIC ≦ 4) | +++ (+++ = MIC ≦ 4) | +++ (+++ = MIC ≦ 4) | – | – | – | – | – | – | – | – | –
8 | Cn1cc(NC(=O)c2cc(NC(=O)c3cc(NC(=O)c4cc5ccccc5cn4)cn3C)c[nH]2)cc1C(=O)NCCN1CCSCC1 [Ib-87] | +++ (+++ = MIC ≦ 4) | >32 mg/L | +++ (+++ = MIC ≦ 4) | +++ (+++ = MIC ≦ 4) | +++ (+++ = MIC ≦ 4) | +++ (+++ = MIC ≦ 4) | +++ (+++ = MIC ≦ 4) | +++ (+++ = MIC ≦ 4) | +++ (+++ = MIC ≦ 4) | – | – | – | – | – | – | – | – | –
9 | Cn1cc(NC(=O)c2cc(NC(=O)c3cc(NC(=O)c4cc5ccccc5cn4)cs3)cn2C)cc1C(=O)NCCN1CCOCC1 [Ib-51] | +++ (+++ = MIC ≦ 4) | ++ (++ = 4 < MIC < 12) | +++ (+++ = MIC ≦ 4) | ++ (++ = 4 < MIC < 12) | +++ (+++ = MIC ≦ 4) | +++ (+++ = MIC ≦ 4) | ++ (++ = 4 < MIC < 12) | +++ (+++ = MIC ≦ 4) | + (+ = 12 ≦ MIC ≦ 32) | – | – | – | – | – | – | – | – | –
10 | Cn1cc(NC(=O)c2cc(NC(=O)c3cc(NC(=O)c4cc5ccccc5cn4)cn3C)c[nH]2)cc1C(=O)NCCN1CCC(F)(F)CC1 [Ib-88] | +++ (+++ = MIC ≦ 4) | >32 mg/L | +++ (+++ = MIC ≦ 4) | +++ (+++ = MIC ≦ 4) | +++ (+++ = MIC ≦ 4) | +++ (+++ = MIC ≦ 4) | +++ (+++ = MIC ≦ 4) | +++ (+++ = MIC ≦ 4) | +++ (+++ = MIC ≦ 4) | – | – | – | – | – | – | – | – | –
11 | Cn1cc(NC(=O)c2ccc(NC(=O)c3cc(NC(=O)c4cc5ccccc5cn4)cn3C)cc2)cc1C(=O)NCCN1CCSCC1 [Ic-7] | +++ (+++ = MIC ≦ 4) | >32 mg/L | +++ (+++ = MIC ≦ 4) | +++ (+++ = MIC ≦ 4) | +++ (+++ = MIC ≦ 4) | +++ (+++ = MIC ≦ 4) | +++ (+++ = MIC ≦ 4) | +++ (+++ = MIC ≦ 4) | +++ (+++ = MIC ≦ 4) | – | – | – | – | – | – | – | – | –
12 | Cn1cc(NC(=O)c2cc(NC(=O)c3cc(NC(=O)c4cc5ccccc5cn4)c[nH]3)cn2C)cc1C(=O)NCCN1CCC(F)(F)CC1 [Ib-78] | +++ (+++ = MIC ≦ 4) | >32 mg/L | +++ (+++ = MIC ≦ 4) | +++ (+++ = MIC ≦ 4) | +++ (+++ = MIC ≦ 4) | +++ (+++ = MIC ≦ 4) | +++ (+++ = MIC ≦ 4) | +++ (+++ = MIC ≦ 4) | +++ (+++ = MIC ≦ 4) | – | – | – | – | – | – | – | – | –
13 | Cn1cc(NC(=O)c2ccc(NC(=O)c3cc(NC(=O)c4cc5ccccc5cn4)cn3C)cc2)cc1C(=O)NCCc1ccccn1 [Ic-12] | >32 mg/L | >32 mg/L | +++ (+++ = MIC ≦ 4) | +++ (+++ = MIC ≦ 4) | +++ (+++ = MIC ≦ 4) | +++ (+++ = MIC ≦ 4) | +++ (+++ = MIC ≦ 4) | +++ (+++ = MIC ≦ 4) | +++ (+++ = MIC ≦ 4) | – | – | – | – | – | – | – | – | –
14 | Cn1cc(NC(=O)c2cc3ccccc3cn2)cc1C(=O)Nc1cc(C(=O)Nc2cc(C(=O)NCCN3CCOCC3)ns2)n(C)c1 [Ib-52] | +++ (+++ = MIC ≦ 4) | >32 mg/L | +++ (+++ = MIC ≦ 4) | +++ (+++ = MIC ≦ 4) | +++ (+++ = MIC ≦ 4) | +++ (+++ = MIC ≦ 4) | +++ (+++ = MIC ≦ 4) | +++ (+++ = MIC ≦ 4) | +++ (+++ = MIC ≦ 4) | – | – | – | – | – | – | – | – | –
